Results from patent publication US4965261A, “Substituted benzoxazinorifamycin derivative and antibacterial agent containing the same” (Kanegafuchi Kagaku Kogyo Kabushiki Kaisha, priority 1988, dated 1990).
In brackets after ≈: the same amount, converted by molar mass.

Assays:
[1] = system: Mycobacterium tuberculosis H37 Rv; assay: Antibacterial activity against a tubercle bacillus, two-fold dilution in Kirchner liquid medium; conditions: Kirchner medium with 10% bovine serum, 37° C., 4 weeks
[2] = system: Micrococcus luteus IFO 12708; assay: Antibacterial activity, standard method of Japan Society of Chemotherapy (Table 2); format: cell-based; conditions: IFO12708, read-out: Minimal inhibitory concentration
Excerpt: (§1) Derivative No. in Table 2 corresponds to derivative No. in Table 1.

[3] = system: Escherichia coli IFO 12734; assay: as above; format: cell-based; conditions: IFO12734, read-out: Minimal inhibitory concentration
Excerpt: as §1

[4] = system: Mycobacterium smegmatis ATCC 607; assay: as above; format: cell-based; conditions: Mycolicibacterium smegmatis, ATCC607, read-out: Minimal inhibitory concentration
Excerpt: as §1

[5] = system: Bacillus subtilis IFO 3134; assay: as above; format: cell-based; conditions: IFO3134, read-out: Minimal inhibitory concentration
Excerpt: as §1

[6] = system: Staphylococcus aureus IFO 12732; assay: as above; format: cell-based; conditions: IFO12732, read-out: Minimal inhibitory concentration
Excerpt: as §1

[7] = system: Klebsiella pneumoniae IFO 3512; assay: as above; format: cell-based; conditions: IFO3512, read-out: Minimal inhibitory concentration
Excerpt: as §1

[8] = Plasma concentration after oral administration to mice, bioassay with Micrococcus luteus IFO 12708; format: in vivo, ddY male mice; conditions: mouse, 20 mg/kg
Experimental: The derivatives No. 4 and No. 11 shown in Table 1 were orally administered to ddY male mice (7 weeks), respectively, in a dose of 20 mg/kg. The concentration of the test compound in the plasma was measured by a bioassay method employing Micrococcus luteus IFO 12708 as an assay bacterium according to a usual manner. The results are as follows: As for the derivative No. 4, the concentrations in the plasma after 1 hour, 3 hours, 5 hours and 8 hours from the administration were 17.0 μg/ml, 13.3 μg/ml, 14.5 μg/ml, 4.2 μg/ml, respectively. As for the derivative No. 11, the concentrations in the plasma after 1 hour, 3 hours, 5 hours and 8 hours from the administration were 17.3 μg/ml, 16.2 μg/ml, 13.8 μg/ml and 10.1 μg/ml, respectively.

[9] = system: Mycobacterium tuberculosis H37 Rv; assay: Repeated treatment test of mice infected with tuberculosis, survival on fortieth day (groups of 10 mice); conditions: oral, 200 μg/mouse

SMILES	Minimal inhibitory concentration ([1]; Table 3) [µg/mL]	MIC [2] [µg/mL]	MIC [3] [µg/mL]	MIC [4] [µg/mL]	MIC [5] [µg/mL]	MIC [6] [µg/mL]	MIC [7] [µg/mL]	concentration at 1 h ([8]; 1 hour) [ng/mL]	concentration at 3 h ([8]; 3 hours) [ng/mL]	concentration at 5 h ([8]; 5 hours) [ng/mL]	concentration at 8 h ([8]; 8 hours) [ng/mL]	Minimal inhibitory concentration ([1]; Table 4) [µg/mL]	Survival rate [9] [%]	dead mice [9]
CCOc1c(N2CCN(C(C)C)CC2)ccc2nc3c4c5c6c(C)c(O)c4c(=O)c(c-3oc12)NC(=O)C(C)=CC=CC(C)C(O)C(C)C(O)C(C)C(OC(C)=O)C(C)C(OC)C=COC(C)(O6)C5=O (stereo not drawn) [Derivative No. 7]	0.017 (≈ 0.0178 µM)	≤ 0.02	5 (≈ 5.23 µM)	1.25 (≈ 1.31 µM)	≤ 0.02	≤ 0.02	5 (≈ 5.23 µM)	–	–	–	–	–	–	–
COC1C=COC2(C)Oc3c(C)c(O)c4c(=O)c(c5oc6c(OC(C)C)c(N7CCCC7)ccc6nc-5c4c3C2=O)NC(=O)C(C)=CC=CC(C)C(O)C(C)C(O)C(C)C(OC(C)=O)C1C (stereo not drawn) [Derivative No. 11]	0.017 (≈ 0.0186 µM)	0.04 (≈ 0.0439 µM)	> 10	1.25 (≈ 1.37 µM)	0.08 (≈ 0.0877 µM)	≤ 0.02	> 10	17300	16200	13800	10100	–	–	–
CCN1CCN(c2ccc3nc4c5c6c7c(C)c(O)c5c(=O)c(c-4oc3c2OC(C)C)NC(=O)C(C)=CC=CC(C)C(O)C(C)C(O)C(C)C(OC(C)=O)C(C)C(OC)C=COC(C)(O7)C6=O)CC1 (stereo not drawn) [Derivative No. 12]	0.017 (≈ 0.0178 µM)	≤ 0.02	5 (≈ 5.23 µM)	1.25 (≈ 1.31 µM)	≤ 0.02	≤ 0.02	5 (≈ 5.23 µM)	–	–	–	–	–	–	–
CO[C@H]1/C=C/O[C@@]2(C)Oc3c(C)c(O)c4c(O)c(c(/C=N/N5CCN(C)CC5)c(O)c4c3C2=O)NC(=O)/C(C)=C\C=C\[C@H](C)[C@H](O)[C@@H](C)[C@@H](O)[C@@H](C)[C@H](OC(C)=O)[C@@H]1C [Rifampicin, reference compound]	0.6 (≈ 0.729 µM)	≤ 0.02	> 10	10 (≈ 12.2 µM)	0.08 (≈ 0.0972 µM)	≤ 0.02	5 (≈ 6.08 µM)	–	–	–	–	0.3 (≈ 0.365 µM)	80	–
COc1c(N2CCN(C)CC2)ccc2nc3c4c5c6c(C)c(O)c4c(=O)c(c-3oc12)NC(=O)C(C)=CC=CC(C)C(O)C(C)C(O)C(C)C(OC(C)=O)C(C)C(OC)C=COC(C)(O6)C5=O (stereo not drawn) [Derivative No. 2]	0.15 (≈ 0.164 µM)	≤ 0.02	2.5 (≈ 2.74 µM)	1.25 (≈ 1.37 µM)	≤ 0.02	≤ 0.02	2.5 (≈ 2.74 µM)	–	–	–	–	–	–	–
CCOc1c(N2CCN(C)CC2)ccc2nc3c4c5c6c(C)c(O)c4c(=O)c(c-3oc12)NC(=O)C(C)=CC=CC(C)C(O)C(C)C(O)C(C)C(OC(C)=O)C(C)C(OC)C=COC(C)(O6)C5=O (stereo not drawn) [Derivative No. 5]	0.035 (≈ 0.0378 µM)	≤ 0.02	2.5 (≈ 2.7 µM)	1.25 (≈ 1.35 µM)	≤ 0.02	≤ 0.02	2.5 (≈ 2.7 µM)	–	–	–	–	–	–	–
CCCOc1c(N2CCN(CC(C)C)CC2)ccc2nc3c4c5c6c(C)c(O)c4c(=O)c(c-3oc12)NC(=O)C(C)=CC=CC(C)C(O)C(C)C(O)C(C)C(OC(C)=O)C(C)C(OC)C=COC(C)(O6)C5=O (stereo not drawn) [Derivative No. 10]	0.07 (≈ 0.0712 µM)	0.16 (≈ 0.163 µM)	> 10	1.25 (≈ 1.27 µM)	0.16 (≈ 0.163 µM)	0.04 (≈ 0.0407 µM)	> 10	–	–	–	–	–	–	–
COc1c(N2CCCC2)ccc2nc3c4c5c6c(C)c(O)c4c(=O)c(c-3oc12)NC(=O)C(C)=CC=CC(C)C(O)C(C)C(O)C(C)C(OC(C)=O)C(C)C(OC)C=COC(C)(O6)C5=O (stereo not drawn) [Derivative No. 1]	0.017 (≈ 0.0192 µM)	0.04 (≈ 0.0452 µM)	> 10	2.5 (≈ 2.83 µM)	0.16 (≈ 0.181 µM)	≤ 0.02	> 10	–	–	–	–	–	–	–
COc1c(N2CCN(CC(C)C)CC2)ccc2nc3c4c5c6c(C)c(O)c4c(=O)c(c-3oc12)NC(=O)C(C)=CC=CC(C)C(O)C(C)C(O)C(C)C(OC(C)=O)C(C)C(OC)C=COC(C)(O6)C5=O (stereo not drawn) [Derivative No. 3]	0.017 (≈ 0.0178 µM)	0.08 (≈ 0.0838 µM)	> 10	1.25 (≈ 1.31 µM)	0.04 (≈ 0.0419 µM)	≤ 0.02	> 10	–	–	–	–	–	–	–
COC1C=COC2(C)Oc3c(C)c(O)c4c(=O)c(c5oc6c(OCC(C)C)c(N7CCN(CC(C)C)CC7)ccc6nc-5c4c3C2=O)NC(=O)C(C)=CC=CC(C)C(O)C(C)C(O)C(C)C(OC(C)=O)C1C (stereo not drawn) [Derivative No. 14]	–	0.31 (≈ 0.311 µM)	> 10	0.63 (≈ 0.632 µM)	0.08 (≈ 0.0802 µM)	0.08 (≈ 0.0802 µM)	> 10	–	–	–	–	–	–	–
CCOc1c(N2CCN(CC)CC2)ccc2nc3c4c5c6c(C)c(O)c4c(=O)c(c-3oc12)NC(=O)C(C)=CC=CC(C)C(O)C(C)C(O)C(C)C(OC(C)=O)C(C)C(OC)C=COC(C)(O6)C5=O (stereo not drawn) [Derivative No. 6]	–	≤ 0.02	5 (≈ 5.31 µM)	0.63 (≈ 0.669 µM)	≤ 0.02	≤ 0.02	2.5 (≈ 2.66 µM)	–	–	–	–	0.008 (≈ 0.0085 µM)	–	–
COc1c(N2CCN(CC(C)C)CC2)cc(C)c2nc3c4c5c6c(C)c(O)c4c(=O)c(c-3oc12)NC(=O)C(C)=CC=CC(C)C(O)C(C)C(O)C(C)C(OC(C)=O)C(C)C(OC)C=COC(C)(O6)C5=O (stereo not drawn) [Derivative No. 17]	0.07 (≈ 0.0722 µM)	0.08 (≈ 0.0825 µM)	> 10	1.25 (≈ 1.29 µM)	0.04 (≈ 0.0413 µM)	≤ 0.02	> 10	–	–	–	–	–	100	there was not observed any dead mouse
COc1c(N2CCN(C)CC2)cc(C)c2nc3c4c5c6c(C)c(O)c4c(=O)c(c-3oc12)NC(=O)C(C)=CC=CC(C)C(O)C(C)C(O)C(C)C(OC(C)=O)C(C)C(OC)C=COC(C)(O6)C5=O (stereo not drawn) [Derivative No. 16]	–	≤ 0.02	5 (≈ 5.39 µM)	1.25 (≈ 1.35 µM)	≤ 0.02	≤ 0.02	5 (≈ 5.39 µM)	–	–	–	–	–	–	–
COc1c(N2CCCC2)cc(C)c2nc3c4c5c6c(C)c(O)c4c(=O)c(c-3oc12)NC(=O)C(C)=CC=CC(C)C(O)C(C)C(O)C(C)C(OC(C)=O)C(C)C(OC)C=COC(C)(O6)C5=O (stereo not drawn) [Derivative No. 15]	0.008 (≈ 0.00891 µM)	0.04 (≈ 0.0445 µM)	> 10	1.25 (≈ 1.39 µM)	0.08 (≈ 0.0891 µM)	0.04 (≈ 0.0445 µM)	> 10	–	–	–	–	–	–	–
COC1C=COC2(C)Oc3c(C)c(O)c4c(=O)c(c5oc6c(OC(C)C)c(N7CCN(CC(C)C)CC7)ccc6nc-5c4c3C2=O)NC(=O)C(C)=CC=CC(C)C(O)C(C)C(O)C(C)C(OC(C)=O)C1C (stereo not drawn) [Derivative No. 13]	0.07 (≈ 0.0712 µM)	0.16 (≈ 0.163 µM)	> 10	1.25 (≈ 1.27 µM)	0.16 (≈ 0.163 µM)	0.04 (≈ 0.0407 µM)	> 10	–	–	–	–	–	100	there was not observed any dead mouse
CCCOc1c(N2CCCC2)ccc2nc3c4c5c6c(C)c(O)c4c(=O)c(c-3oc12)NC(=O)C(C)=CC=CC(C)C(O)C(C)C(O)C(C)C(OC(C)=O)C(C)C(OC)C=COC(C)(O6)C5=O (stereo not drawn) [Derivative No. 9]	0.035 (≈ 0.0384 µM)	0.08 (≈ 0.0877 µM)	> 10	1.25 (≈ 1.37 µM)	0.08 (≈ 0.0877 µM)	0.04 (≈ 0.0439 µM)	> 10	–	–	–	–	–	–	–
